From US20220177462A1, “SUBSTITUTED HETEROCYCLIC AMIDE COMPOUND AND PREPARATION METHOD THEREFOR AND PHARMACEUTICAL USE THEREOF” (GENFLEET THERAPEUTICS (SHANGHAI) INC., priority 2019, published 2022)

system: U937 cells; experiment: Inhibitory activity against programmed necroptosis of U937 cells induced by TNF-α; type: cell-based, human; details: Homo sapiens, U-937, 48 h, 100 ng/ml human TNF-α and 25 μM Q-VD-Oph, 48 hours, CellTiter-Glo survival rate; read-out: U937 IC50
Protocol: The U937 cell strain which was used in the following Testing Examples was derived from ATCC, No.: CRL-1593.2, batch No.: 63479999, culture medium: RPMI-1640+10% FBS.
The compound was dissolved in DMSO to prepare a 10 mM stock solution. The stock solution was diluted in 3.16 folds with DMSO to a series of gradient concentrations. Then, the resultant solution was diluted in 250 folds with a culture medium to prepare a working solution. The U937 cells were inoculated in a 384-well plate at 5000/well. The compound at respective concentration was added to each of the cells, and was mixed with the cells homogeneously. 100 ng/ml human TNF-α and 25 μM Q-VD-Oph were added simultaneously to induce programmed necroptosis of the cells. The final concentration of DMSO was 2%. The cells were placed in the incubator at 37° C. and 5% CO2 for further culture of 48 hours. Celltiter-Glo reagent was used for detection. After adequate pyrolysis reaction, the chemiluminescence readout value was recorded by a microplate reader. The survival rate was calculated from the detection results using the equation as follows: SR (%)=(RLU compound−RLU blank)/(RLU high control−RLU blank)×100%. The survival rate was plotted against the final concentration of respective compound using a 4-parameter fitting to calculate the inhibitory IC50 of the compound against programmed necroptosis of cells induced by TNF-a.

SMILES | IC50
COc1ncc(-c2ccc3nc(N)sc3c2)cc1C(=O)NCc1cccnc1OC1CCCC1 [Compound Z52, 5-(2-aminobenzo[d]thiazol-6-yl)-N-((2-(cyclopentyloxy)pyridin-3-yl)methyl)-2-methoxynicotinamide] | 19 nM
Cc1ncc(-c2ccc3nc(N)sc3c2)cc1C(=O)NCc1c(F)cccc1OCC1CCCC1 [Compound Z12, 5-(2-aminobenzo[d]thiazol-6-yl)-N-(2-(cyclopentylmethoxy)-6-fluorobenzyl)-2-methylnicotinamide] | 10 nM
COc1ncc(-c2ccc3nc(N)sc3c2)cc1C(=O)NCc1cc(F)ccc1OC1CCCC1 [Compound Z19, 5-(2-aminobenzo[d]thiazol-6-yl)-N-(2-(cyclopentyloxy)-5-fluorobenzyl)-2-methoxynicotinamide] | 7 nM
COc1ncc(-c2ccc3nc(N)sc3c2)cc1C(=O)NC(C)c1ccccc1OC(F)(F)F (single isomer, unassigned) [Compound Z1, 5-(2-aminobenzothiazol-6-yl)-2-methoxy-N-(1-(2-(trifluoromethoxy)phenyl)ethyl)nicotinamide] | 52 nM
Cn1ncc2c(-c3ccn4nc(N)nc4c3)cc(C(=O)NCc3cccnc3OC3CCCC3)cc21 [Compound Z57, 4-(2-amino-[1,2,4]triazolo[1,5-a]pyridin-7-yl)-N-((2-(cyclopentyloxy)pyridin-3-yl)methyl)-1-methyl-1H-indazole-6-carboxamide] | 11 nM
COc1ncc(-c2ccc3nc(N)sc3c2)cc1C(=O)N1CCCC(Cc2ccc(F)cc2)C1 (stereo not shown) [Compound Z17, (5-(2-aminobenzo[d]thiazol-6-yl)-2-methoxypyridin-3-yl)(3-(4-fluorobenzyl)piperidin-1-yl)methanone] | 4 nM
COc1nc(C)c(-c2ccc3nc(N)sc3c2)cc1C(=O)NCc1ccccc1OC1CCOC1 (stereo not shown) [Compound Z40, 5-(2-aminobenzo[d]thiazol-6-yl)-2-methoxy-6-methyl-N-(2-((tetrahydrofuran-3-yl)oxy)benzyl)nicotinamide] | 68 nM
COc1nc(C)c(-c2ccc3nc(N)sc3c2)cc1C(=O)NCc1ccccc1OC(C)C [Compound Z42, 5-(2-aminobenzo[d]thiazol-6-yl)-N-(2-isopropoxybenzyl)-2-methoxy-6-methylnicotinamide] | 43 nM
Cn1ncc2c(-c3ccn4nc(N)nc4c3)cc(C(=O)NCc3cc(F)ccc3OC3CCOCC3)cc21 [Compound Z61, 4-(2-amino-[1,2,4]triazolo[1,5-a]pyridin-7-yl)-N-(5-fluoro-2-((tetrahydro-2H-pyran-4-yl)oxy)benzyl)-1-methyl-1H-indazole-6-carboxamide] | 2 nM
CC(NC(=O)c1cc(-c2ccn3nc(N)nc3c2)c2cc[nH]c2c1)c1ccccc1OC(F)(F)F (stereo not shown) [Compound Z25, 4-(2-amino-[1,2,4]triazolo[1,5-a]pyridin-7-yl)-N-(1-(2-(trifluoromethoxy)phenyl)ethyl)-1H-indole-6-carboxamide] | 140 nM
COc1ncc(-c2ccc3nc(N)sc3c2)cc1C(=O)NCc1cc(OC(F)(F)F)ccc1F [Compound Z14, 5-(2-aminobenzo[d]thiazol-6-yl)-N-(2-fluoro-5-(trifluoromethoxy)benzyl)-2-methoxynicotinamide] | 6 nM
COc1ncc(-c2ccc3nc(N)sc3c2)cc1C(=O)NCc1ccccc1OCC1CC1 [Compound Z20, 5-(2-aminobenzo[d]thiazol-6-yl)-N-(2-(cyclopropylmethoxy)benzyl)-2-methoxynicotinamide] | 18 nM
COc1ncc(-c2ccc3nc(N)sc3c2)cc1C(=O)NC(C)c1c(F)cccc1OC(F)(F)F (stereo not shown) [Compound Z48, 5-(2-aminobenzo[d]thiazol-6-yl)-N-(1-(2-fluoro-6-(trifluoromethoxy)phenyl)ethyl)-2-methoxynicotinamide] | 88 nM
COc1ncc(-c2ccc3nc(N)sc3c2)cc1C(=O)Nc1cnn(C(C)c2ccc(F)cc2)c1 (stereo not shown) [Compound Z63, 5-(2-aminobenzo[d]thiazol-6-yl)-N-(1-(1-(4-fluorophenyl)ethyl)-1H-pyrazol-4-yl)-2-methoxynicotinamide] | 7 nM
CC(NC(=O)c1cc(-c2ccn3nc(N)nc3c2)cc2[nH]ccc12)c1ccccc1OC(F)(F)F (stereo not shown) [Compound Z24, 6-(2-amino-[1,2,4]triazolo[1,5-a]pyridin-7-yl)-N-(1-(2-(trifluoromethoxy)phenyl)ethyl)-1H-indole-4-carboxamide] | 151 nM
Cn1ncc2c(-c3ccn4nc(N)nc4c3)cc(C(=O)NCc3cc(F)ccc3OCC3CC3)cc21 [Compound Z59, 4-(2-amino-[1,2,4]triazolo[1,5-a]pyridin-7-yl)-N-(2-(cyclopropylmethoxy)-5-fluorobenzyl)-1-methyl-1H-indazole-6-carboxamide] | 24 nM
COc1ncc(-c2ccc3nc(N)sc3c2)cc1C(=O)NCCCc1ccccc1 [Compound Z16, 5-(2-aminobenzo[d]thiazol-6-yl)-2-methoxy-N-(3-phenylpropyl)nicotinamide] | 26 nM
COc1nc(C)c(-c2ccc3nc(N)sc3c2)cc1C(=O)NCc1cc(F)cc(F)c1OCC1CC1 [Compound Z38, 5-(2-aminobenzo[d]thiazol-6-yl)-N-(2-(cyclopropylmethoxy)-3,5-difluorobenzyl)-2-methoxy-6-methylnicotinamide] | 14 nM
CC(c1ccc(F)cc1)n1cc(NC(=O)c2cc(-c3ccn4nc(N)nc4c3)c3cnn(C)c3c2)cn1 (stereo not shown) [Compound Z60, 4-(2-amino-[1,2,4]triazolo[1,5-a]pyridin-7-yl)-N-(1-(1-(4-fluorophenyl)ethyl)-1H-pyrazol-4-yl)-1-methyl-1H-indazole-6-carboxamide] | 213 nM
Cc1ncc(-c2ccc3nc(N)sc3c2)cc1C(=O)NC(C)c1cc(OC(F)(F)F)ccc1F (stereo not shown) [Compound Z43, 5-(2-aminobenzo[d]thiazol-6-yl)-N-(1-(2-fluoro-5-(trifluoromethoxy)phenyl)ethyl)-2-methylnicotinamide] | 3 nM
COc1ncc(C(=O)NCc2cc(F)ccc2OC2CCCC2)cc1-c1ccc2nc(N)sc2c1 [Compound Z13, 5-(2-aminobenzo[d]thiazol-6-yl)-N-(2-(cyclopentyloxy)-5-fluorobenzyl)-6-methoxynicotinamide] | 17 nM
COc1nc(C)c(-c2ccc3nc(N)sc3c2)cc1C(=O)NC(C)c1ccccc1OC(F)(F)F (stereo not shown) [Compound Z37, 5-(2-aminobenzo[d]thiazol-6-yl)-2-methoxy-6-methyl-N-(1-(2-(trifluoromethoxy)phenyl)ethyl)nicotinamide] | 45 nM
Cn1ncc2c(-c3ccn4nc(N)nc4c3)cc(C(=O)NCc3cc(F)ccc3OC3CCOC3)cc21 (stereo not shown) [Compound Z62, 4-(2-amino-[1,2,4]triazolo[1,5-a]pyridin-7-yl)-N-(5-fluoro-2-((tetrahydrofuran-3-yl)oxy)benzyl)-1-methyl-1H-indazole-6-carboxamide] | 30 nM
COc1nc(C)c(-c2ccc3nc(N)sc3c2)cc1C(=O)NCc1cccnc1OC1CCCC1 [Compound Z41, 5-(2-aminobenzo[d]thiazol-6-yl)-N-((2-(cyclopentyloxy)pyridin-3-yl)methyl)-2-methoxy-6-methylnicotinamide] | 14 nM
Nc1nc2ccc(-c3cncc(C(=O)NCc4ccccc4OCC4CC4)c3)cc2s1 [Compound Z22, 5-(2-aminobenzo[d]thiazol-6-yl)-N-(2-(cyclopropylmethoxy)benzyl)nicotinamide] | 62 nM
